Entries after “also recorded” stand apart in the source; their conditions may differ. Where two headings read alike, the source gives them in different places.
Columns and labels:
[1] = system: wild-type (AB) zebrafish (Danio rerio); test: Maximum tolerated concentration (MTC) determination in zebrafish larvae; type: in vivo; conditions: for MTC (maximum tolerated concentration): 5 dpf zebrafish larvae, after 24-hr exposure
Description: Determination of maximum tolerated concentration (adapted from Berghmans)[52] was completed by placing 5 days post fertilization (dpf) wild-type zebrafish larvae in a 24 well plate at 6 fish per well, and one compound concentration per well. […] Death was determined by the absence of heartbeat. Additional endpoints were used to assess toxicity at non-lethal concentrations such as startle capacity (poke stimulus), abnormalities in swimming behavior (loss of dorsoventral balance), and gross morphological deformities (bent body). […] The MTC determination was used to select three doses of each compound (low, medium, high dose) to be used in behavioral assays.

[2] = system: wild-type (AB) zebrafish (Danio rerio); test: animal or person; type: in vivo; conditions: for Therap. Index: zebrafish, apparently MTC / MEC
Description: The movement of larval zebrafish was monitored with the Noldus behavior recording system (Noldus Information Technology, Leesburg VA) and quantified using EthoVision® XT 15 software (Noldus Information Technology, Leesburg VA). Five-dpf zebrafish larvae were exposed to a range of nonlethal concentrations of compounds in a 24-well plate with appropriate controls. The plate was immediately placed in the incubator for a 30-minute exposure period. After 30 minutes, the plate was transferred to the Noldus system and swimming behavior was recorded in 100% light for 30 minutes to measure spontaneous swimming behavior. The light was switched off for 10 minutes (dark period) and then switched on for 10 minutes (light period), which was then repeated for two additional cycles. In total, the larvae were exposed to three cycles of alternating 10-minute dark and light periods (100% darkness-to-100% light). Each drug challenge was conducted on three separate plates with n = 6 larvae/dose/plate.
Absolute turn angle (TA) and angular velocity provided measures of the extent of turning behavior, while the intra-individual variance of turn angle quantified how consistently (low variance) or inconsistently (high variance) fish turned. A lowered intra-individual variance of turning reflected repeatedly performing the same turning behavior, a stereotypy.[53]
All data for exposure and the behavioral end points were analyzed by one-way ANOVA (factor: drug concentration) followed by a Dunnett’s multiple comparisons test for post hoc significance between drug concentration and control group. Statistically significant differences are noted as follows; *, p < 0.05; **, p < 0.01; ***, p < 0.001.

[3] = biological target: T1, human M1 muscarinic receptors (Homo sapiens, UniProt P11229); test: [3H]-arachidonic acid release in CHO cells expressing M1 receptors, with and without ACh; type: cell-based; set-up: expressed in transfected cells; host or cells: CHO cells (stably transfected CHO-hM1, from Mark Brann's laboratory, NIH); conditions: for No ACh: agonist effect of the allosteric ligand by itself, fraction of the maximal response that could be elicited by ACh / 0.1 µM ACh: response with modulator present divided by response to ACh alone / 100 µM ACh: response with modulator present divided by response to ACh alone: modulator 10 µM, mean ± s.e.m.; for No ACh: agonist effect of the allosteric ligand by itself, fraction of the maximal response that could be elicited by ACh: at least 4 determinations
T1 sequence (P11229 1-460): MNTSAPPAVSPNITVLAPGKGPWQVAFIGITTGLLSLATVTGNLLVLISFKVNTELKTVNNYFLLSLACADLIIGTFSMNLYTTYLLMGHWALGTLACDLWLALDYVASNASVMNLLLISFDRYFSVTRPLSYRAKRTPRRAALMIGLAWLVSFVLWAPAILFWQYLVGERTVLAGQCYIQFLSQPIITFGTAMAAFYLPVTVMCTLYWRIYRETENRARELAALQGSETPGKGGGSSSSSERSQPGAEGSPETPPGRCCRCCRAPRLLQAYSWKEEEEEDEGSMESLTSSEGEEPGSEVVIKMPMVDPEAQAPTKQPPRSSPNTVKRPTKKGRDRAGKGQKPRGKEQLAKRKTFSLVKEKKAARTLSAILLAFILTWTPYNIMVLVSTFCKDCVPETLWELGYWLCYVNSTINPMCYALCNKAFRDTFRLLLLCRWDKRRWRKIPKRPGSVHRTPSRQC
Description: CHO cells expressing human M1 muscarinic receptors were cultured at 37°C in a 5% CO2 atmosphere in F12 medium supplemented with 5% fetal bovine serum, 100 units/mL penicillin, and 100µg/mL streptomycin. These cells were obtained from Mark Brann’s laboratory when they were at NIH and have been in use by us and others for many years.[49]
Measurement of [^3H]AA release was performed as described in Stahl and Ellis.[24] Stably transfected CHO-hM1 cells were seeded on 24-well plates (Greiner Bio-One GmbH, Frickenhausen, Germany) at a density of 5.0 × 10^4 cells/well in 0.5 ml of F-12 medium. Cells were incubated until they attached (approximately 3 h), followed by the addition of [^3H]AA to a final concentration of 0.05 µCi of [^3H]AA per well. The cells were then grown for 16 to 20 h before the assay was performed. [^3H]AA release was measured in Eagle’s basal medium with 20 mM HEPES and 2 mg/ml fatty acid-free bovine serum albumin (EM-BSA). Cells were rinsed twice with EM-BSA, followed by the addition of EM-BSA media containing experimental agents and incubated for 1 h at 37°C. The assay was terminated by aspiration of the media, and the amount of [^3H]AA released was determined by liquid scintillation counting (Beckman-Coulter LS6500). […]
Tabulated [^3H]AA release data are represented as a fraction of maximal release elicited by ACh or as the fraction of release elicited by the relevant concentration of ACh alone, as indicated. Dose-response curves were normalized to the maximal response of ACh without allosteric ligand. Where indicated, response curves were analyzed using the empirical four-parameter equation: […] where X is the concentration of the ligand used, Y is the amount of response, C50 is the concentration of the ligand that produces 50% of the maximal effect, Top and Bottom are the top and bottom plateaus of the curve, and n is related to the Hill slope for the curve. Where indicated, families of response curves were analyzed according to an allosteric operational model:[50],[51]

[4] = [3H]AA release, CHO-hM1, modulators at 10 µM (amiodarone 30 µM)

| SMILES | MTC (maximum tolerated concentration) [1] [µM] | Therap. Index [2] | modulation of ACh response (in words) [3, 4] | further results |
| --- | --- | --- | --- | --- |
| CCCCc1oc2ccccc2c1C(=O)c1cc(I)c(OCCN(CC)CC)c(I)c1 [Amiodarone, reference compound] | 10 |  |  | concentration that produced death ([1]; zebrafish larvae): 100 µM |
| COc1ccc(Cn2cc(C(=O)O)c(=O)c3ccccc32)cc1 [BQCA, reference compound] |  |  |  | effect on locomotor activity and turning behaviors (in words) ([2]; AB zebrafish, 30-minute spontaneous swimming period): decreased overall locomotor activity; modulation of ACh response (in words) [3]: enhanced potency without appreciable effect on maximal response; No ACh: agonist effect of the allosteric ligand by itself, fraction of the maximal response that could be elicited by ACh ([3]; CHO-hM1): 0.02 ± 0.00 |
| CCCCc1oc2ccccc2c1C(=O)c1cc(I)c(OCCNCC)c(I)c1.Cl [Compound 1, (2-butylbenzofuran-3-yl)(4-(2-(ethylamino)ethoxy)-3,5-diiodophenyl)methanone hydrochloride] | 3 | 1 | suppressed the maximal ACh response |  |
| CCCCc1oc2ccccc2c1C(=O)c1cc(I)c(OCC[N+](CC)(CC)CC)c(I)c1 [Compound 2, N-ethyl amiodarone, reference compound] | 1 |  | NAM of mAChR potency and efficacy |  |
| CCCCc1oc2ccccc2c1C(=O)c1cc(I)c(O)c(I)c1 [Compound 3, reference compound] | 3 |  | suppressed the maximal ACh response |  |
| CCCCc1oc2ccccc2c1C(=O)c1ccc(O)cc1 [Compound 4, reference compound] | 0.3 |  | suppressed the maximal ACh response |  |
| CCCCc1oc2ccccc2c1C(=O)c1cc(I)c(OCCN(CC)C(C)=O)c(I)c1 [Compound 5a, N-(2-(4-(2-butylbenzofuran-3-carbonyl)-2,6-diiodophenoxy)ethyl)-N-ethylacetamide] | 10 |  |  | intrinsic agonist activity (in words) ([3]; [3H]AA release in the absence of ACh, 10 µM): significant intrinsic agonist activity; increase in mAChR activity compared to treatment with ACh alone ([3]; [3H]AA release, CHO-hM1, predominantly at higher doses of ACh (Table 2, not available)): 70% |
| CCCCc1oc2ccccc2c1C(=O)c1ccc(OC)cc1 [Compound 6a, (2-butylbenzofuran-3-yl)(4-methoxyphenyl)methanone] | 3 |  |  |  |
| CCCCc1oc2ccccc2c1C(=O)c1cc(I)c(OC)c(I)c1 [Compound 6b, (2-butylbenzofuran-3-yl)(3,5-diiodo-4-methoxyphenyl)methanone] | 30 |  | increased ACh activity |  |
| CCCCc1oc2ccccc2c1C(=O)c1ccc(OCCN(CC)CC)cc1 [Compound 6c, (2-butylbenzofuran-3-yl)(4-(2-(diethylamino)ethoxy)phenyl)methanone] | 3 | 30 | decreased ACh activity |  |
| COc1ccc(CN2C(=O)C(=O)c3ccccc32)cc1I [Compound 8b, 1-(3-iodo-4-methoxybenzyl)indoline-2,3-dione] | 10 | 10 |  |  |
| COc1ccc(CN2C(=O)C(=O)c3ccccc32)cc1Br [Compound 8d, 1-(3-bromo-4-methoxybenzyl)indoline-2,3-dione] | 100 | 100 |  |  |
| COc1c(Cl)cc(CN2C(=O)C(=O)c3ccccc32)cc1Cl [Compound 8e, 1-(3,5-dichloro-4-methoxybenzyl)indoline-2,3-dione] | 100 | 100 |  |  |
| COc1ccc(CN2C(=O)C(=O)c3ccccc32)cc1Cl [Compound 8f, 1-(3-chloro-4-methoxybenzyl)indoline-2,3-dione] | 10 | 3.3 |  |  |
| COc1c(F)cc(CN2C(=O)C(=O)c3ccccc32)cc1F [Compound 8g, 1-(3,5-difluoro-4-methoxybenzyl)indoline-2,3-dione] | 30 | 30 |  |  |
| COc1ccc(CN2C(=O)C(=O)c3ccccc32)cc1F [Compound 8h, 1-(3-fluoro-4-methoxybenzyl)indoline-2,3-dione] | 30 | 10 |  |  |
| O=C1C(=O)N(Cc2cc(F)c(F)c(F)c2)c2ccccc21 [Compound 8i, 1-(3,4,5-trifluorobenzyl)indoline-2,3-dione] | 10 | 10 |  |  |
| COc1cc(CN2C(=O)C(=O)c3ccccc32)cc(OC)c1OC [Compound 8k, 1-(3,4,5-trimethoxybenzyl)indoline-2,3-dione] | 30 | 30 |  |  |
| CCN(CC)CCOc1c(Br)cc(CN2C(=O)C(=O)c3ccccc32)cc1Br.Cl [Compound 8l, 1-(3,5-dibromo-4-(2-(diethylamino)ethoxy)benzyl)indoline-2,3-dione hydrochloride] | 10 | 1 | only decreased ACh activity; also recorded: decreased ACh potency with little impact on ACh efficacy |  |
| O=C1C(=O)N(Cc2ccc(O)cc2)c2ccccc21 [Compound 10, 1-(4-hydroxybenzyl)indoline-2,3-dione] | 10 | 3.3 |  |  |
| CCCCc1oc2ccc(NS(C)(=O)=O)cc2c1C(=O)c1ccc(OCCCN(CCCC)CCCC)cc1 [Dronedarone, reference compound] | 10 | 1 |  | 0.1 µM ACh: response with modulator present divided by response to ACh alone ([3]; CHO-hM1): 0.25 ± 0.05; 100 µM ACh: response with modulator present divided by response to ACh alone ([3]; CHO-hM1): 0.75 ± 0.07; No ACh: agonist effect of the allosteric ligand by itself, fraction of the maximal response that could be elicited by ACh ([3]; CHO-hM1): 0.08 ± 0.01 |
| O=C1C(=O)N(Cc2ccc(Br)cc2)c2ccccc21 [VU0119498, reference compound] |  |  |  | 0.1 µM ACh: response with modulator present divided by response to ACh alone ([3]; CHO-hM1): 1.28 ± 0.12; 100 µM ACh: response with modulator present divided by response to ACh alone ([3]; CHO-hM1): 1.03 ± 0.05; No ACh: agonist effect of the allosteric ligand by itself, fraction of the maximal response that could be elicited by ACh ([3]; CHO-hM1): 0.06 ± 0.01 |
